Starred links: 1 amine or outer side, 2 acyl side, 3 side chain; linkers in the order of their positions; H or OH if unused. Non-standard residues stand in square brackets, D forms with d. Residues, ends and D or L forms follow the SMILES beside them. Groups on a side chain read outwards from the residue. *: point of attachment. C18 diacid = O=C(O)CCCCCCCCCCCCCCCCC(=O)*; γGlu = O=C(O)[C@H](CCC(=O)[*:2])N[*:1]; NMeY = CN[C@@H](Cc1ccc(O)cc1)C(=O)O; AEEA = NCCOCCOCC(=O)O; Aib = CC(C)(N)C(=O)O
Test: physchem
Outline: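 3 mg of peptide treated with 100 μL portions of 200 mM phosphate buffer pH 7.4, sonicating/vortexing up to 1 min, with further buffer added until fully dissolved. Solubility then quantified by HPLC.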

[1] = pH 7.4, aqueous buffer, pH 7.4 Phosphate Buffer - Solubility, 200 mM Phosphate buffer pH 7.4
[2] = pH 7.4, solubility in phosphate buffer at pH 7.4, 200 mM phosphate buffer pH 7.4

## CC[C@H](C)[C@H](NC(=O)[C@H](CO)NC(=O)[C@H](Cc1ccc(O)cc1)NC(=O)[C@H](CC(=O)O)NC(=O)[C@H](CO)NC(=O)[C@@H](NC(=O)[C@H](Cc1ccccc1)NC(=O)[C@@H](NC(=O)CNC(=O)[C@H](CCC(=O)O)NC(=O)C(C)(C)NC(=O)[C@@H](N)Cc1ccc(O)cc1)[C@@H](C)O)[C@@H](C)CC)C(=O)N[C@@H](C)C(=O)NC(C)(C)C(=O)N[C@@H](CC(=O)O)C(=O)N[C@@H](CCCCN)C(=O)N[C@@H](C)C(=O)N[C@@H](C)C(=O)N[C@@H](CCC(N)=O)C(=O)N[C@@H](CCC(N)=O)C(=O)N[C@@H](CCCCNC(=O)COCCOCCNC(=O)COCCOCCNC(=O)CC[C@H](NC(=O)CC[C@H](NC(=O)CCCCCCCCCCCCCCCCC(=O)O)C(=O)O)C(=O)O)C(=O)N[C@@H](Cc1ccccc1)C(=O)N[C@H](C(=O)N[C@@H](CCC(=O)O)C(=O)N[C@@H](Cc1c[nH]c2ccccc12)C(=O)N[C@@H](CC(C)C)C(=O)N[C@@H](CC(C)C)C(=O)N[C@@H](C)C(=O)N[C@@H](CCC(N)=O)C(=O)N[C@@H](CCCNC(=N)N)C(=O)NCC(=O)O)C(C)C [Compound 157] (H-Y[Aib]EGTFISDYSIA[Aib]DKAAQQK([AEEA-AEEA-γGlu-γGlu-C18 diacid])FVEWLLAQRG-OH)
pH 7.4
  solubility: ≥ 15 mg/mL
pH 7.4, aqueous buffer
  solubility: ≥ 30 mg/mL

## CC[C@H](C)[C@H](NC(=O)[C@H](Cc1ccccc1)NC(=O)[C@@H](NC(=O)CNC(=O)[C@H](CCC(=O)O)NC(=O)C(C)(C)NC(=O)[C@H](Cc1ccc(O)cc1)NC)[C@@H](C)O)C(=O)N[C@@H](CO)C(=O)N[C@@H](CC(=O)O)C(=O)N[C@@H](Cc1ccc(O)cc1)C(=O)N[C@@H](CO)C(=O)N[C@H](C(=O)NC(C)(C)C(=O)N[C@@H](CC(C)C)C(=O)N[C@@H](CC(=O)O)C(=O)N[C@@H](CCCNC(=N)N)C(=O)N[C@@H](CCCCNC(=O)COCCOCCNC(=O)COCCOCCNC(=O)CC[C@H](NC(=O)CC[C@H](NC(=O)CCCCCCCCCCCCCCCCC(=O)O)C(=O)O)C(=O)O)C(=O)N[C@@H](C)C(=O)N[C@@H](CCC(N)=O)C(=O)NC(C)(C)C(=O)N[C@@H](CC(N)=O)C(=O)N[C@@H](Cc1ccccc1)C(=O)N[C@H](C(=O)N[C@@H](CC(N)=O)C(=O)N[C@@H](Cc1c[nH]c2ccccc12)C(=O)N[C@@H](CC(C)C)C(=O)N[C@@H](CC(C)C)C(=O)N[C@@H](C)C(=O)N[C@@H](CCC(N)=O)C(=O)N[C@@H](CCCNC(=N)N)C(=O)N1CCC[C@H]1C(=O)N[C@@H](CO)C(=O)N[C@@H](CO)C(=O)NCC(=O)N[C@@H](C)C(=O)N1CCC[C@H]1C(=O)N1CCC[C@H]1C(=O)N1CCC[C@H]1C(=O)N[C@@H](CO)C(N)=O)C(C)C)[C@@H](C)CC [Compound 26] (H-[NMeY][Aib]EGTFISDYSI[Aib]LDRK([AEEA-AEEA-γGlu-γGlu-C18 diacid])AQ[Aib]NFVNWLLAQRPSSGAPPPS-NH2)
[1]
  solubility: ≥ 30 mg/mL
[2]
  solubility: ≥ 15 mg/mL

## CC[C@H](C)[C@H](NC(=O)[C@H](CO)NC(=O)[C@H](Cc1ccc(O)cc1)NC(=O)[C@H](CC(=O)O)NC(=O)[C@H](CO)NC(=O)[C@@H](NC(=O)[C@H](Cc1ccccc1)NC(=O)[C@@H](NC(=O)CNC(=O)[C@H](CCC(=O)O)NC(=O)C(C)(C)NC(=O)[C@H](Cc1ccc(O)cc1)NC)[C@@H](C)O)[C@@H](C)CC)C(=O)N[C@@H](C)C(=O)N[C@@H](CC(C)C)C(=O)N[C@@H](CO)C(=O)N[C@@H](CCCNC(=N)N)C(=O)N[C@@H](CCCCNC(=O)CNC(=O)CNC(=O)CNC(=O)CNC(=O)CNC(=O)CNC(=O)CCCCCCCCCCCCCCCCC(=O)O)C(=O)N[C@@H](Cc1c[nH]cn1)C(=O)N[C@@H](CCC(N)=O)C(=O)NC(C)(C)C(=O)N[C@@H](CC(N)=O)C(=O)N[C@@H](Cc1ccccc1)C(=O)N[C@H](C(=O)N[C@@H](CC(N)=O)C(=O)N[C@@H](Cc1c[nH]c2ccccc12)C(=O)N[C@@H](CC(C)C)C(=O)N[C@@H](CC(C)C)C(=O)N[C@@H](C)C(=O)N[C@@H](CCC(N)=O)C(=O)N[C@@H](CCCNC(=N)N)C(=O)N1CCC[C@H]1C(=O)N[C@@H](CO)C(=O)N[C@@H](CO)C(=O)NCC(=O)N[C@@H](C)C(=O)N1CCC[C@H]1C(=O)N1CCC[C@H]1C(=O)N1CCC[C@H]1C(=O)N[C@@H](CO)C(=O)N[C@@H](CCCNC(=N)N)C(N)=O)C(C)C [Compound 279]
[1]
  solubility: < 15 mg/mL

## CC[C@H](C)[C@H](NC(=O)[C@H](Cc1ccccc1)NC(=O)[C@@H](NC(=O)CNC(=O)[C@H](CCC(=O)O)NC(=O)C(C)(C)NC(=O)[C@H](Cc1ccc(O)cc1)NC)[C@@H](C)O)C(=O)N[C@@H](CO)C(=O)N[C@@H](CC(=O)O)C(=O)N[C@@H](Cc1ccc(O)cc1)C(=O)N[C@@H](CO)C(=O)N[C@H](C(=O)NC(C)(C)C(=O)N[C@@H](CCCCNC(=O)CNC(=O)CNC(=O)CNC(=O)CNC(=O)CNC(=O)CCCCCCCCCCCCCCCCC(=O)O)C(=O)N[C@@H](CC(=O)O)C(=O)N[C@@H](CCCNC(=N)N)C(=O)NC(C)(C)C(=O)N[C@@H](C)C(=O)N[C@@H](CCC(N)=O)C(=O)NC(C)(C)C(=O)N[C@@H](CC(=O)O)C(=O)N[C@@H](Cc1ccccc1)C(=O)N[C@H](C(=O)N[C@@H](CC(N)=O)C(=O)N[C@@H](Cc1c[nH]c2ccccc12)C(=O)N[C@@H](CC(C)C)C(=O)N[C@@H](CC(C)C)C(=O)N[C@@H](C)C(=O)N[C@@H](CCC(N)=O)C(=O)N[C@@H](CCCNC(=N)N)C(=O)N1CCC[C@H]1C(=O)N[C@@H](CO)C(=O)N[C@@H](CO)C(=O)NCC(=O)N[C@@H](C)C(=O)N1CCC[C@H]1C(=O)N1CCC[C@H]1C(=O)N1CCC[C@H]1C(=O)N[C@@H](CO)C(N)=O)C(C)C)[C@@H](C)CC [Compound 276]
[1]
  solubility: < 15 mg/mL

## CC[C@H](C)[C@H](NC(=O)[C@H](Cc1ccccc1)NC(=O)[C@@H](NC(=O)CNC(=O)[C@H](CCC(=O)O)NC(=O)C(C)(C)NC(=O)[C@H](Cc1ccc(O)cc1)NC)[C@@H](C)O)C(=O)N[C@@H](CO)C(=O)N[C@@H](CC(=O)O)C(=O)N[C@@H](Cc1ccc(O)cc1)C(=O)N[C@@H](CO)C(=O)N[C@H](C(=O)NC(C)(C)C(=O)N[C@@H](CC(C)C)C(=O)N[C@@H](CC(=O)O)C(=O)N[C@@H](CCCNC(=N)N)C(=O)NC(C)(C)C(=O)N[C@@H](C)C(=O)N[C@@H](CCC(N)=O)C(=O)NC(C)(C)C(=O)N[C@@H](CCCCNC(=O)COCCOCCNC(=O)COCCOCCNC(=O)CC[C@H](NC(=O)CC[C@H](NC(=O)CCCCCCCCCCCCCCCCC(=O)O)C(=O)O)C(=O)O)C(=O)N[C@@H](Cc1ccccc1)C(=O)N[C@H](C(=O)N[C@@H](CC(N)=O)C(=O)N[C@@H](Cc1c[nH]c2ccccc12)C(=O)N[C@@H](CC(C)C)C(=O)N[C@@H](CC(C)C)C(=O)N[C@@H](C)C(=O)N[C@@H](CCC(N)=O)C(=O)N[C@@H](CCCNC(=N)N)C(=O)N1CCC[C@H]1C(=O)N[C@@H](CO)C(=O)N[C@@H](CO)C(=O)NCC(=O)N[C@@H](C)C(=O)N1CCC[C@H]1C(=O)N1CCC[C@H]1C(=O)N1CCC[C@H]1C(=O)N[C@@H](CO)C(N)=O)C(C)C)[C@@H](C)CC [Compound 89] (H-[NMeY][Aib]EGTFISDYSI[Aib]LDR[Aib]AQ[Aib]K([AEEA-AEEA-γGlu-γGlu-C18 diacid])FVNWLLAQRPSSGAPPPS-NH2)
[1]
  solubility: ≥ 60 mg/mL
[2]
  solubility: ≥ 15 mg/mL
